From publication PMC5563081, “Modulating Protein-Protein Interactions of the Mitotic Polo-like Kinases to Target Mutant KRAS” (Cell Chemical Biology, 2017)
≈ marks a conversion by molar mass, not a printed value. Where “and” joins values, the source holds several entries; their conditions need not be identical. Equal entries are not always repeated. Where two headings read alike, the source gives them in different places.

How the values were obtained:
Panc-1 = assay: Cell viability (SRB), Panc-1; format: cell-based, human; conditions: Homo sapiens, PANC-1, 72 h; for GI50: read-out: Abs GI50
Protocol: SW48 Parental, SW48 G12D, Panc-1, HPAF-II, Panc 02.03 and Panc 05.04 cell lines were seeded overnight at 5000 cells per well in a 96 well plate in recommended media (ATCC). Compounds were added the following day and viability was measured at 72h using the sulforhodamine B (SRB) colorimetric assay as follows. Cells were fixed by replacing media with 1% v/v Trichloroacetic Acid (TCA) (Sigma-Aldrich) at 4°C and incubated for 1h also at 4°C. Wells were washed thoroughly with copious amounts of deionised water before staining with Sulforhodamine B (SRB) (Sigma-Aldrich) solution (0.057% w/v in 1% v/v Acetic Acid (VWR)) for 30 min. Stain was aspirated and wells washed with several changes of 1% v/v Acetic Acid until unbound stain was removed, before air-drying. Bound stain was solubilized with 100μl / well 10mM Tris (pH 8.0) (Trizma Base (121.1) Sigma-Aldrich) with agitation for 10 min. Fluorescence intensity was recorded at Ex540nm / Em590nm using a BMG Pherastar Plus plate reader ([Vichai and Kirtikara, 2006]).
Pancreatic organoids were extracted and cultured as detailed above ([Boj et al., 2015]). In brief, pancreatic organoids were seeded at 600 cells per well in a 96 well plate and allowed to grow for 7 days with media replenishment on the 3rd day. Full-grown organoids were then treated with compounds for 72h and viability determined using CellTitre Glo 3D assay (Promega). For viability assays with c-MET siRNA, cells were reverse transfected in a 6 cm dish using Dharmafect 1 (GE Dharmacon) per manufacturer’s instructions. On the following day, cells were trypsinised and plated onto 96 well plates or 6 well plates. The 96 well plates were treated with a dose range of compounds or DMSO, and viability was determined via SRB colorimetric assay. Cells in the 6 well plates were collected at the end of experiment to corroborate knockdown of c-MET by Western blotting.
Cells were reverse-transfected with 50nM (SW48 parental, SW48 KRAS G12D and Panc-1) or 25nM (HeLa Flp-In T-REx parental cells) siRNA using Dharmafect (GE Dharmacon) as manufacturer’s recommendations. Where transfected cells were subsequently treated with compounds, the cells were allowed to settle overnight and then treated with compound at the indicated concentration the following day. Viability was assessed after 72 hrs, with the SRB colorimetric assay. Knockdown efficiencies were determined by Western blot or RT-qPCR. Oligos against the following target sequences were used. c-MET (Qiagen): […], […], […]. PLK1 (Qiagen): […]. PLK2 (SMARTpool; Dharmacon): ACACAGAAGGAGAACGAUA, CAUCAAUGAGGAUAGGAUA, CUGCCUAGUGUUACUGAUA, ACAAAGUCUACGCCGCAAA. PLK3 (SMARTpool; Dharmacon): GCGAGAAGAUCCUAAAUGA, GCAAGUGGGUUGACUACUC, GCACAUCCGUUGGCCAUCA, GACCUCAAGUUGGGAAAUU. PLK4 (Qiagen): […].

PLK1 PBD = PLK1 PBD (Homo sapiens, UniProt P53350); assay: Fluorescence polarisation (FP) assay, PLK1 PBD; format: binding; design: PLK1 PBD (aa345-603) 84nM; GST (N, cleaved yes); made in house; host or cells: E. coli C41
Chain of PLK1 PBD (P53350 345-603): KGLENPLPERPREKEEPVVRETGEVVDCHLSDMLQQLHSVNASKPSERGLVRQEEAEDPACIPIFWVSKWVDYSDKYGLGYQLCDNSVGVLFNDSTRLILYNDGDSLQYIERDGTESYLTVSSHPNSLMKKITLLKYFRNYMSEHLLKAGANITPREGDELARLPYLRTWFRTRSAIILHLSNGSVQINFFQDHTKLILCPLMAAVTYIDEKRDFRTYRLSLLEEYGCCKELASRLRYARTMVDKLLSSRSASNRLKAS
Protocol: Final concentrations of assay components used in binding assays were as follows: TAMRA-labelled consensus PLK1 PBD binding phosphopeptide, 5-TAMRA-MAGPMQS(pThreonine)PLMGAKK-acid 10nM; PLK1 PBD (aa345-603) 84nM (2.5ng/μl). Assays were carried out in PBS (pH 7.4) plus 0.03% tween. DMSO controls were run alongside all experimental compounds and % inhibition normalised to these controls. Compounds were titrated 2 fold from a top concentration of 250μM giving a maximum final concentration of DMSO in the assay of 0.25%; however the assay can tolerate DMSO up to 5%. Compound and PBD protein were incubated together at 22°C for 1 hour prior to addition of the TAMRA labelled binding phosphopeptide. The total assay volume per well was 45μl. All experiments were performed in NBS black 384-well microtiter plates (Corning). Fluorescence Polarisation (FP) was read using a BMG PheraStar plate reader with a 540/590/590nm FP module and unbound 10nm TAMRA-labelled peptide set to a FP value of 35mP.

Solubility in 5% DMSO = format: physicochemical; conditions: aqueous with cosolvent or surfactant or cyclodextrin, read-out: soluble at up to

SMILES | GI50 (Panc-1; Panc-1, individual compound, 72 hr, Figure 7G) | IC50 (PLK1 PBD; read-out: IC50, binding of TAMRA-labeled phosphopeptide to PLK1 PBD) | solubility (Solubility in 5% DMSO) | GI50 (Panc-1) | EC50 (Panc-1; read-out: EC50, % survival, Panc-1, All Stars control siRNA, 72 h) | EC50 (Panc-1; read-out: EC50, % survival, Panc-1, siMET, 72 h) | IC50 (PLK1 PBD; IC50, binding of TAMRA-labeled phosphopeptide to PLK1 PBD)
CN(C)CCNC(=O)c1ccc(-c2ccc(-c3ccc(Cl)cc3)n2-c2ccccc2C(F)(F)F)cc1 [Poloppin-II] | 0.314 µM | 40.9 µM and 41 µM | ~100 µM (≈ 51.2 µg/mL) |  |  |  | 
O=C(O)CCc1ccc(-c2ccc(Br)cc2)n1-c1ccccc1C(F)(F)F [Poloppin] |  |  | ≤ 1000 µM | 33.4 µM | 40.4 ± 1.03 µM | 16.8 ± 1.03 µM | 26.9 µM
